Source: patent publication US20040204863A1, “Crystal of a kinase-ligand complex and methods of use” (priority 1999, published 2004)

Columns and labels:
Lck = Lck (Homo sapiens, UniProt P06239); settings: reported in [51]; cited from earlier work
ZAP-70 = target: T1, ZAP-70 (Homo sapiens, UniProt P43403); settings: reported in [51]; cited from earlier work
T1 sequence (P43403 1-619): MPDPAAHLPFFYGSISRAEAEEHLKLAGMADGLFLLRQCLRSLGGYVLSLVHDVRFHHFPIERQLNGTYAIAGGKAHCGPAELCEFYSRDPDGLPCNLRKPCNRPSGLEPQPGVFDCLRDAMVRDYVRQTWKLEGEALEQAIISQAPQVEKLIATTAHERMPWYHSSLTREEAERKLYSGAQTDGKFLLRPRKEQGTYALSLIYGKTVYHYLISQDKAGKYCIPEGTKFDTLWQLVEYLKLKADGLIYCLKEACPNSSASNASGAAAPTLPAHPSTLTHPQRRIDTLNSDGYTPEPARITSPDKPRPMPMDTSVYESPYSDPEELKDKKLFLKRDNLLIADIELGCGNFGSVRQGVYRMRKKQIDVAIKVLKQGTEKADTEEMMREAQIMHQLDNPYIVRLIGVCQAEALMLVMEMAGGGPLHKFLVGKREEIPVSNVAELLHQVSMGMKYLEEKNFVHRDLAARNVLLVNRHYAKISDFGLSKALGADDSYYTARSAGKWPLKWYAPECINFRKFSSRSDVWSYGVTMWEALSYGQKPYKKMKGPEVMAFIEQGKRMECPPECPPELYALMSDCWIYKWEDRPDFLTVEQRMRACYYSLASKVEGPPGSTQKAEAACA

[1] = system: TCR ζ-chain (p23) and 70 kD protein phosphorylation in Jurkat cells; type: cell-based; settings: TCR-induced phosphotyrosine, western blot, FIG. 7C
Description: Phosphotyrosine western blotting. […] Cells were then transferred to 37° C. water bath for 1 minute. Stimulation was stopped by the addition of 5 volumes of cold PBS containing 200 μM sodium orthovanadate. Cells were spun down and lysed in 150 mM Tris/10 mM HEPES buffer, pH 7.3, containing 1% Triton X-100 and Complete protease inhibitor cocktail (Boehringer Mannheim, Germany) for 30 minutes on ice. […] Blots were probed with anti-phosphotyrosine (4G10, Upstate Biotechnology, Inc., Saranac Lake, N.Y.) and developed using ECL-plus following the manufacturers directions (Amersham, Arlington Heights, Ill.).

[2] = system: IL-2 production in hPBL T-cells; assay: T-cell activation: TCR-induced IL-2 secretion (ELISA); type: cell-based; settings: human T-cell cultures, anti-CD3/anti-CD28 stimulation, 20 hours, FIG. 7B; read-out: IC50 inhibition of IL-2 production
Description: T-cell activation. Whole blood was obtained from normal donors and human peripheral blood lymphocytes (hPBL) were isolated by ficol-hypaque density centrifugation. T-cells were then purified from the hPBL by negative selection using an R&D column following the manufacturers directions (R&D Systems, Minneapolis, Minn.). A 96-well flat-bottomed plate was coated with 10 μg/ml of goat anti-mouse (GAM)-IgG1 (Caltag, Burlingame, Calif.) in PBS overnight at 4C. The GAM-coated plate was flicked out and anti-CD3 mAb (UCHT-1, Coulter/Immunotech, Miami, Fla.) is added at 0.2 μg/ml in AIMV medium (Gibco, Grand Island, N.Y.) for 3 hr. at 37C. Purified T-cells were pre-incubated at 1×10^5/well in AIM V with or without compound for 30 minutes then transferred to the anti-CD3 capture plate. Finally, anti-CD28 (Pharmingen, San Diego, Calif.) in AIMV (150 ng/ml final) was added to each well. Cells were incubated for 20 hours at 37C in 5% CO2 then supernatants were tested by ELISA for cytokine levels (Endogen, Woburn, Mass.).

Sequence of Lck (P06239 whole entry, species assumed): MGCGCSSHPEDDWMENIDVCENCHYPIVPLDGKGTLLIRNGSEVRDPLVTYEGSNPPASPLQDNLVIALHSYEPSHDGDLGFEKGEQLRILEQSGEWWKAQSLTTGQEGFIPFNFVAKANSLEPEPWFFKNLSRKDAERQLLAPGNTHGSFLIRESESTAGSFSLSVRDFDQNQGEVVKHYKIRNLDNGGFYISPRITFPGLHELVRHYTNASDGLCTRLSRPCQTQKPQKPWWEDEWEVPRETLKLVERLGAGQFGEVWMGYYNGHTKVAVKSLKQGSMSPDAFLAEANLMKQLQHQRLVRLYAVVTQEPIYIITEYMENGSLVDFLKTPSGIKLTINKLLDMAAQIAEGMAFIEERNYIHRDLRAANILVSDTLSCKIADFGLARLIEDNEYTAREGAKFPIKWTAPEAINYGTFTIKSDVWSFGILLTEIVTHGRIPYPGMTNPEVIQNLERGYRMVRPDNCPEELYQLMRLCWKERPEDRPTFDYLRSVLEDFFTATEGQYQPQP

For Cc1ccc(-c2nn(C(C)(C)C)c3ncnc(N)c23)cc1 [PP1], the “inhibitory activity against Lck compared with PP2” value (Lck) is given as “approximately the same inhibitory activity against Lck”.
For CC(C)(C)n1nc(-c2ccc(Cl)cc2)c2c(N)ncnc21 [PP2], the IC50 (ZAP-70) is given as at least 100000 nM, the “inhibition of Lck-dependent phosphorylation of the TCR ζ-chain (p23)” value [1] is given as “dose-dependent inhibition” and the “inhibition of phosphorylation of a 70 kD protein (likely ZAP-70)” value [1] is given as “inhibited the phosphorylation of a 70 kD protein”. The IC50 [2] was 600 nM.
With CN[C@@H]1C[C@H]2O[C@@](C)([C@@H]1OC)n1c3ccccc3c3c4c(c5c6ccccc6n2c5c31)C(=O)NC4 [staurosporine] the IC50 [2] was 60 nM.
